The values below come from patent US20230416802A1, “SPECIFIC SUBSTRATES AND PRODUCTS OF HSD17B13 AS MARKERS OF LIVER DISEASE AND BIOMARKERS FOR LIVER DISEASE TREATMENT” (INIPHARM, INC., priority 2020, published 2023).

The assay addresses T1, HSD17B13 enzyme (Homo sapiens, UniProt Q7Z5P4).
T1 construct: His; made in house; host or cells: E. coli
T1 sequence (Q7Z5P4 20-300): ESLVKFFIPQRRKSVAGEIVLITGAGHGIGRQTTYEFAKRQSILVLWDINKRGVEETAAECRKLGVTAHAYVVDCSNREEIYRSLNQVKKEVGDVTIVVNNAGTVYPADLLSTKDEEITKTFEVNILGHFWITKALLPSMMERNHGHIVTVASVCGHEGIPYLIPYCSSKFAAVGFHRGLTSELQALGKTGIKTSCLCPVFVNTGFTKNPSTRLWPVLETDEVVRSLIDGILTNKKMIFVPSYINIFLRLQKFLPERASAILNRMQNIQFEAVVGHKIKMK
The experiment in a line: HSD17B13 activity assay using NADH fluorescence. The note with it: activity relative to positive control LTB3; for Relative oxidation at 30 μM (%): substrate at 30 μM, NADH production by purified HSD17B13. The format is biochemical. As to the method:
A fluorescence based HSD17B13 activity assay was used to monitor the fluorescence of NADH, which is generated from NAD+ during the dehydrogenation of the substrate LTB3 or other substrates. Reactions were performed in a 384-well plates (Greiner; #655076) in a 20 μl reaction volume containing the following reagents (final concentrations): 3 mM NAD^+ (Sigma; #N0623); 125 nM HSD17B13 enzyme (in-house E. coli expressed His-tagged, purified, soluble protein); 1 M potassium phosphate buffer, pH 7.4; 1% DMSO; and a range of substrate concentrations ([…]). Reactions proceeded for […] at 26.5° C. Generation of NADH was measured as the fluorescence signal (Excitation at 340 nm and Emission at 445 nm) at 3 hours minus the baseline fluorescence at t=0. Fluorescence signals in the absence of added substrate (negative control values), were subtracted from all values so that the results reflected substrate-dependent production of NADH. NADH standards were included to allow the conversion of relative fluorescence units into rates of enzyme activity. Ten concentrations of substrate were tested (in the range of 30 mM-2.5 nM), and two independent assessments were performed at each concentration. Activity was compared to the positive control, LTB3, at a concentration of […]. Results are reported as the ratio: [Activity of compound at 30 mM]/[Activity of LTB3 at […]].

As for `CCCCC/C=C\C[C@@H](O)/C=C/C=C\C/C=C\CCCC(=O)O` [12(R) HETE], the “Relative oxidation at 30 μM (%)” value turned out to be 60%.

On to `CCCCC[C@@H](O)/C=C/C=C\CCCCCCCCCC(=O)O` [15 (R) HEDE], for which the “Relative oxidation at 30 μM (%)” value is 46%.

As to `CCCCCCCCCCCC(=O)SCCNC(=O)CCNC(=O)[C@H](O)C(C)(C)COP(=O)(O)OP(=O)(O)OC[C@H]1O[C@@H](n2cnc3c(N)ncnc32)[C@H](O)[C@@H]1OP(=O)(O)O` [Lauryl coenzyme A, S-[2-[3-[[(2R)-4-[[[(2R,3S,4R,5R)-5-(6-aminopurin-9-yl)-4-hydroxy-3-phosphonooxyoxolan-2-yl]methoxy-hydroxyphosphoryl]oxy-hydroxyphosphoryl]oxy-2-hydroxy-3,3-dimethylbutanoyl]amino]propanoylamino]ethyl] dodecanethioate], the “Relative oxidation (%) at 3.3 μM” value (substrate at 3.3 μM) is 35 (AT 3.3 μM) %.

`CCCCCCCC[C@@H](O)/C=C/C=C\C=C\[C@@H](O)CCCC(=O)O` [Leukotriene B3 (LTB3), 5S,12R-dihydroxy-6Z,8E,10E-eicosatrienoic acid]: the “Relative oxidation at 30 μM (%)” value was 100%.

`CC/C=C\C/C=C\C[C@H](O)\C=C/C=C/C=C/[C@H](O)C/C=C\CCC(=O)O` [Maresin 1, 7R,14S-dihydroxy-4Z,8E,10E,12Z,16Z,19Z-docosahexaenoic acid]: the “Relative oxidation at 30 μM (%)” value was 22%.

With `CC(C(=O)O)C(=O)SCCNC(=O)CCNC(=O)[C@H](O)C(C)(C)COP(=O)(O)OP(=O)(O)OC[C@H]1O[C@@H](n2cnc3c(N)ncnc32)[C@H](O)[C@@H]1OP(=O)(O)O` (stereo partly drawn) [Methyl malonyl coenzyme A, (9R)-1-[(2R,3S,4R,5R)-5-(6-Amino-9H-purin-9-yl)-4-hydroxy-3-(phosphonooxy)oxolan-2-yl]-3,5,9-trihydroxy-8,8,20-trimethyl-3,5,10,14,19-pentaoxo-2,4,6-trioxa-18-thia-11,15-diaza-3λ5,5λ5-diphosphahenicosan-21-oic acid], the “Relative oxidation (%) at 10 μM” value (substrate at 10 μM) is 29 (at 10 μM) %.

On to `CC/C=C\C[C@H](O)/C=C/C=C\C=C\[C@@H](O)C/C=C\C/C=C\CCC(=O)O` [Protectin DX, 10(S),17(S)-dihydroxy-4Z,7Z,11E,13Z,15E,19Z-docosahexaenoic acid], for which the “Relative oxidation at 30 μM (%)” value is given as 105%.

For `CC/C=C\C[C@H](O)/C=C/C=C\C=C\C=C\[C@@H](O)[C@@H](O)C/C=C\CCC(=O)O` [Resolvin D1, 7S,8R,17S-trihydroxy-4Z,9E,11E,13Z,15E,19Z-docosahexaenoic acid], the “Relative oxidation at 30 μM (%)” value is on record as 135%.

For the compound `CC[C@@H](O)/C=C/C=C\C[C@@H](O)/C=C/C=C/C=C\[C@@H](O)CCCC(=O)O` [Resolvin E1, 5S,12R,18R-trihydroxy-6Z,8E,10E,14Z,16E-eicosapentaenoic acid], the “Relative oxidation at 30 μM (%)” value turned out to be 45%.
